Source: patent US9266883B2, “Ring-fused bicyclic pyridyl derivatives as FGFR4 inhibitors” (Novartis AG, priority 2013, dated 2016)

Biological target: Tel-FGFR4 (Homo sapiens (Human), UniProt P22455)
Experiment: In vitro cellular kinase assay for FGFR4 (BaF3-Tel-FGFR4 cells, MSD capture ELISA of tyrosine phosphorylation)
Format: cell-based
Settings: BaF3-Tel-FGFR4 cells, 1 hour incubation; read-out: Cellular BaF3 FGFR4 IC50

Chain of Tel-FGFR4 (P22455 other isoform, or with tags, fused parts or gaps): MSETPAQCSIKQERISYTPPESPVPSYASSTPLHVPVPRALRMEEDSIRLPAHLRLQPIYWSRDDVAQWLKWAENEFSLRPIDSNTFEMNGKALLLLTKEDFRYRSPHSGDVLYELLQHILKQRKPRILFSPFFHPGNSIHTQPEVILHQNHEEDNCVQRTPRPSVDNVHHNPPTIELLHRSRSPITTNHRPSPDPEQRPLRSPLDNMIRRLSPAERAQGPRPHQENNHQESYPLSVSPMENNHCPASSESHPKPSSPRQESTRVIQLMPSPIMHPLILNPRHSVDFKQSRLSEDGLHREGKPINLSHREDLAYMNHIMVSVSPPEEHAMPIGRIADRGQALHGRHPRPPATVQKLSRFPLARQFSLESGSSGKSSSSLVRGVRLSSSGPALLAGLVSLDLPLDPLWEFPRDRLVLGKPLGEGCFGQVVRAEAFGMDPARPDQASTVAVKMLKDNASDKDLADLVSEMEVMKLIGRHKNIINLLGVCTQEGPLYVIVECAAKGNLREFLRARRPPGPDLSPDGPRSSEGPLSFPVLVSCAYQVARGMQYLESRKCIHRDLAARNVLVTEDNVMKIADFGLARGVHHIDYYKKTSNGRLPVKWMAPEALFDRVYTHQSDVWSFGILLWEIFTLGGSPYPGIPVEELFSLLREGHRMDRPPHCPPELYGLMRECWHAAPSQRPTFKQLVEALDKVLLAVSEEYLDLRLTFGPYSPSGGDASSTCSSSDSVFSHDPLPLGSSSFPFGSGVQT

Row | IC50 [nM] | Compound
1 | 146 | CN(C)CC1CN(c2cc(NC(=O)N3CCCc4cc(CO)c(C=O)nc43)ncc2C#N)CCO1 (racemic) [Example 81, N-(5-cyano-4-(2-((dimethylamino)methyl)morpholino)pyridin-2-yl)-7-formyl-6-(hydroxymethyl)-3,4-dihydro-1,8-naphthyridine-1(2H)-carboxamide]
2 | 19.6 | CC(=O)N(C)Cc1cc2c(nc1C=O)N(C(=O)Nc1cc(OCc3cccs3)c(C#N)cn1)CCC2 [Example 239, N-(5-cyano-4-(thiophen-2-ylmethoxy)pyridin-2-yl)-7-formyl-6-((N-methylacetamido)methyl)-3,4-dihydro-1,8-naphthyridine-1(2H)-carboxamide]
3 | 37 | COCCNc1cc(NC(=O)N2CCCc3cc(-c4cccs4)c(C=O)nc32)ncc1C#N [Example 253, N-(5-cyano-4-((2-methoxyethyl)amino)pyridin-2-yl)-7-formyl-6-(thiophen-2-yl)-3,4-dihydro-1,8-naphthyridine-1(2H)-carboxamide]

Same assay, conditions: Cellular BaF3 FGFR4 assay; read-out: Cellular IC50

Row | IC50 [nM] | Compound
4 | 3.7 | CNc1cc(NC(=O)N2CCCc3cc(CN4CCN(C)CC4=O)c(C=O)nc32)ncc1C#N [N-(5-cyano-4-(methylamino)pyridin-2-yl)-7-formyl-6-((4-methyl-2-oxopiperazin-1-yl)methyl)-3,4-dihydro-1,8-naphthyridine-1(2H)-carboxamide]
5 | 11.3 | CNc1cc(NC(=O)N2CCCc3cc(CN(C)C(=O)CN(C)C)c(C=O)nc32)ncc1C#N [N-(5-cyano-4-(methylamino)pyridin-2-yl)-6-((2-(dimethylamino)-N-methylacetamido)methyl)-7-formyl-3,4-dihydro-1,8-naphthyridine-1(2H)-carboxamide]
6 | 10.8 | N#Cc1cnc(NC(=O)N2CCCc3cc(C(F)F)c(C=O)nc32)cc1OCC1CNCCO1 (centres unmarked) [N-(5-cyano-4-(morpholin-2-ylmethoxy)pyridin-2-yl)-6-(difluoromethyl)-7-formyl-3,4-dihydro-1,8-naphthyridine-1(2H)-carboxamide]

Biological target: FGFR4 (GST-FGFR4(388-802)) (Homo sapiens (Human), UniProt P22455)
Experiment: In-vitro biochemical kinase assay for FGFR4 (Caliper microfluidic mobility shift)
Settings: biochemical FGFR4 assay; read-out: Biochemical IC50

Chain of FGFR4 (GST-FGFR4(388-802)) (P22455 388-802): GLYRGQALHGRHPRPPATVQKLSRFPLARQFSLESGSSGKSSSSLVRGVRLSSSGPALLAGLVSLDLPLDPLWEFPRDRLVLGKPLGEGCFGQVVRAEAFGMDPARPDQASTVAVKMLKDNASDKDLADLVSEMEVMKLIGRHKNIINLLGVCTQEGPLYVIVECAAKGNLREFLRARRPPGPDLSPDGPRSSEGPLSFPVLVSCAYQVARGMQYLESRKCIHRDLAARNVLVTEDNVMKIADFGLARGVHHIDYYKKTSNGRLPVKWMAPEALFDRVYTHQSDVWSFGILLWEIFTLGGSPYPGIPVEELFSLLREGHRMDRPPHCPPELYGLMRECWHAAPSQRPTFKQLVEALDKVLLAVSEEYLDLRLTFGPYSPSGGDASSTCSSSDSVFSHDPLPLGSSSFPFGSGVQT

Row | Compound | IC50 [nM]
7 | N#Cc1cnc(NC(=O)N2CCCc3cc(CO)c(C=O)nc32)cc1OCC1CNCCO1 (centres unmarked) [N-(5-cyano-4-(morpholin-2-ylmethoxy)pyridin-2-yl)-7-formyl-6-(hydroxymethyl)-3,4-dihydro-1,8-naphthyridine-1(2H)-carboxamide] | 350
8 | N#Cc1cnc(NC(=O)N2CCCc3cc(C(F)F)c(C=O)nc32)cc1OCC(F)(F)F [N-(5-cyano-4-(2,2,2-trifluoroethoxyl)pyridin-2-yl)-6-(difluoromethyl)-7-formyl-3,4-dihydro-1,8-naphthyridine-1(2H)-carboxamide] | 110
9 | COCC(C)Nc1cc(NC(=O)N2CCCc3cc(CN(C)C(C)=O)c(C=O)nc32)ncc1C#N (centres unmarked) [N-(5-cyano-4-((1-methoxypropan-2-yl)amino)pyridin-2-yl)-7-formyl-6-((N-methylacetamido)methyl)-3,4-dihydro-1,8-naphthyridine-1(2H)-carboxamide] | 0.8

The next lines start with the values.

Row | IC50 [nM] | Compound
10 | 960 | CCc1cc(NC(=O)N2CCCc3cc(CO)c(C=O)nc32)ncc1C#N [N-(5-cyano-4-ethylpyridin-2-yl)-7-formyl-6-(hydroxymethyl)-3,4-dihydro-1,8-naphthyridine-1(2H)-carboxamide]
11 | 4.3 | COCC(C)(C)Nc1cc(NC(=O)N2CCCc3cc(C(F)F)c(C=O)nc32)ncc1C#N [N-(5-cyano-4-((1-methoxy-2-methylpropan-2-yl)amino)pyridin-2-yl)-6-(difluoromethyl)-7-formyl-3,4-dihydro-1,8-naphthyridine-1(2H)-carboxamide]
12 | 1.5 | CC(=O)N(C)Cc1cc2c(nc1C=O)N(C(=O)Nc1cc(OC(C)C)c(C#N)cn1)CCC2 [N-(5-cyano-4-isopropoxypyridin-2-yl)-7-formyl-6-((N-methylacetamido)methyl)-3,4-dihydro-1,8-naphthyridine-1(2H)-carboxamide]
13 | 28 | COCCOc1nc(NC(=O)N2CCCc3cc(C(F)F)c(C=O)nc32)ncc1C#N [N-(5-cyano-4-(2-methoxyethoxyl)pyrimidin-2-yl)-6-(difluoromethyl)-7-formyl-3,4-dihydro-1,8-naphthyridine-1(2H)-carboxamide]
14 | 0.4 | CC(=O)N(C)Cc1cc2c(nc1C=O)N(C(=O)Nc1cc(O[C@H]3CCOC3)c(C#N)cn1)CCC2 [(S)-N-(5-cyano-4-((tetrahydrofuran-3-yl)oxy)pyridin-2-yl)-7-formyl-6-((N-methylacetamido)methyl)-3,4-dihydro-1,8-naphthyridine-1(2H)-carboxamide]
15 | 1.6 | CC(=O)N(C)Cc1cc2c(nc1C=O)N(C(=O)Nc1cc(NCC(C)(C)O)c(C#N)cn1)CCC2 [N-(5-cyano-4-((2-hydroxy-2-methylpropyl)amino)pyridin-2-yl)-7-formyl-6-((N-methylacetamido)methyl)-3,4-dihydro-1,8-naphthyridine-1(2H)-carboxamide]
16 | 0.5 | CC(=O)N(C)Cc1cc2c(nc1C=O)N(C(=O)Nc1cc(OCC(F)(F)F)c(C#N)cn1)CCC2 [N-(5-cyano-4-(2,2,2-trifluoroethoxyl)pyridin-2-yl)-7-formyl-6-((N-methylacetamido)methyl)-3,4-dihydro-1,8-naphthyridine-1(2H)-carboxamide]
17 | 89.5 | COc1cc(NC(=O)N2CCCc3cc(CN4CCN(C)CC4=O)c(C=O)nc32)ncc1C(F)(F)F [7-formyl-N-(4-methoxy-5-(trifluoromethyl)pyridin-2-yl)-6-((4-methyl-2-oxopiperazin-1-yl)methyl)-3,4-dihydro-1,8-naphthyridine-1(2H)-carboxamide]

Same assay, conditions: read-out: Biochemical FGFR4 IC50

Row | Compound | IC50 [nM]
18 | COCCNc1cc(NC(=O)N2CCCc3cc(-n4cnc(C)n4)c(C=O)nc32)ncc1C#N [Example 260, N-(5-cyano-4-((2-methoxyethyl)amino)pyridin-2-yl)-7-formyl-6-(3-methyl-1H-1,2,4-triazol-1-yl)-3,4-dihydro-1,8-naphthyridine-1(2H)-carboxamide] | 14
19 | Cc1cnc(NC(=O)N2CCCc3ccc(C=O)nc32)cc1C [Example 6, N-(4,5-dimethylpyridin-2-yl)-7-formyl-3,4-dihydro-1,8-naphthyridine-1(2H)-carboxamide] | 110
20 | O=Cc1nc2c(cc1CO)CCCN2C(=O)Nc1ccc(C(F)(F)F)cn1 [Example 18, 7-formyl-6-(hydroxymethyl)-N-(5-(trifluoromethyl)pyridin-2-yl)-3,4-dihydro-1,8-naphthyridine-1(2H)-carboxamide] | 98
21 | N#Cc1ccc(NC(=O)N2CCCc3cc(C(F)F)c(C=O)nc32)nc1 [Example 37, N-(5-cyanopyridin-2-yl)-6-(difluoromethyl)-7-formyl-3,4-dihydro-1,8-naphthyridine-1(2H)-carboxamide] | 19
22 | CC(C)S(=O)(=O)c1ccccc1Nc1nc(NC(=O)N2CCCc3ccc(C=O)nc32)ncc1Cl [Example 16, N-(5-chloro-4-((2-(isopropylsulfonyl)phenyl)amino)pyrimidin-2-yl)-7-formyl-3,4-dihydro-1,8-naphthyridine-1(2H)-carboxamide] | 0.2
23 | CC(C)Oc1cc(NC(=O)N2CCCc3cc(C4CCOC4)c(C=O)nc32)ncc1C#N (racemic) [Example 264, N-(5-cyano-4-isopropoxypyridin-2-yl)-7-formyl-6-(tetrahydrofuran-3-yl)-3,4-dihydro-1,8-naphthyridine-1(2H)-carboxamide] | 1
24 | Cc1ccc(NC(=O)N2CCOc3ccc(C=O)nc32)nc1 [Example 9, 6-formyl-N-(5-methylpyridin-2-yl)-2H-pyrido[3,2-b][1,4]oxazine-4(3H)-carboxamide] | 190
25 | CN1CCC2(CCN(c3cc(NC(=O)N4CCCc5ccc(C=O)nc54)ncc3C#N)CC2)C1 [Example 28, N-(5-cyano-4-(2-methyl-2,8-diazaspiro[4.5]decan-8-yl)pyridin-2-yl)-7-formyl-3,4-dihydro-1,8-naphthyridine-1(2H)-carboxamide] | 3.4
26 | CN(C)CCOc1cc(NC(=O)N2CCOc3ccc([13CH]=O)nc32)ncc1C#N [Example 77, N-(5-cyano-4-(2-(dimethylamino)ethoxy)pyridin-2-yl)-6-form-^13C-yl-2H-pyrido[3,2-b][1,4]oxazine-4(3H)-carboxamide] | 43
27 | Cc1cc2c(nc1C=O)N(C(=O)Nc1ccc(C(F)(F)F)cn1)CCC2 [Example 20, 7-formyl-6-methyl-N-(5-(trifluoromethyl)pyridin-2-yl)-3,4-dihydro-1,8-naphthyridine-1(2H)-carboxamide] | 68.5
28 | O=Cc1nc2c(cc1F)CCCN2C(=O)Nc1ccc(C(F)(F)F)cn1 [Example 15, 6-fluoro-7-formyl-N-(5-(trifluoromethyl)pyridin-2-yl)-3,4-dihydro-1,8-naphthyridine-1(2H)-carboxamide] | 45
29 | N#Cc1cnc(NC(=O)N2CCCc3ccc(C=O)nc32)cc1OC1CCOC1 (racemic) [Example 40, N-(5-cyano-4-((tetrahydrofuran-3-yl)oxy)pyridin-2-yl)-7-formyl-3,4-dihydro-1,8-naphthyridine-1(2H)-carboxamide] | 0.7
30 | N#Cc1cnc(NC(=O)N2CCCc3cc(CO)c(C=O)nc32)cc1NCCF [Example 88, N-(5-cyano-4-((2-fluoroethyl)amino)pyridin-2-yl)-7-formyl-6-(hydroxymethyl)-3,4-dihydro-1,8-naphthyridine-1(2H)-carboxamide] | 2.3

Same assay, conditions: read-out: IC50 in the biochemical assay

Row | IC50 [nM] | Compound
31 | > 1000 | O=Cc1nc2c(cc1CO)CCCN2C(=O)Nc1nccc(O[C@H]2CCOC2)n1 [(S)-7-formyl-6-(hydroxymethyl)-N-(4-((tetrahydrofuran-3-yl)oxy)pyrimidin-2-yl)-3,4-dihydro-1,8-naphthyridine-1(2H)-carboxamide]
32 | > 1000 | COCCOc1cc(NC(=O)N2CCCc3cc(CN4CCCC4=O)c(C=O)nc32)ncc1C#N [N-(5-cyano-4-(2-methoxyethoxyl)pyridin-2-yl)-7-formyl-6-((2-oxopyrrolidin-1-yl)methyl)-3,4-dihydro-1,8-naphthyridine-1(2H)-carboxamide]
